Patent US10251394B2, “Molecules having pesticidal utility, and intermediates, compositions, and processes, related thereto” (Dow AgroSciences LLC, priority 2016, dated 2019)

How the values were obtained:
[1] = system: Beet Armyworm (Spodoptera exigua); assay: Bioassay on Beet Armyworm (BAW), 128-well diet tray assay; format: in vivo; settings: for mortality at 0.05 µg/cm2 / mortality at 0.5 µg/cm2 / mortality at 5 µg/cm2: 168 h, second instar larvae, five to seven days, read-out: BAW Percent control (or mortality); for mortality at 0.05 µg/cm2: 0.05 μg/cm^2 on artificial diet; for mortality at 0.5 µg/cm2: 0.5 μg/cm^2 on artificial diet; for mortality at 5 µg/cm2: 5 μg/cm^2 on artificial diet; for pest or weed control at 50 µg/cm2: Beet Armyworm, Table ABC, read-out: BAW rating
In short: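 Second-instar larvae (one to five per well) placed on artificial diet surface-treated with 50 μg/cm^2 test molecule in 90:10 acetone-water, dried, eight wells per molecule. Held at 25° C, 14:10 light-dark, five to seven days; percent mortality recorded per well and averaged across the eight wells.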

[2] = system: Cabbage Looper (Trichoplusia ni); assay: Bioassay on Cabbage Looper (CL), 128-well diet tray assay; format: in vivo; settings: for mortality at 0.05 µg/cm2 / mortality at 0.5 µg/cm2 / mortality at 5 µg/cm2: 168 h, second instar larvae, five to seven days, read-out: CL Percent control (or mortality); for mortality at 0.05 µg/cm2: 0.05 μg/cm^2 on artificial diet; for mortality at 0.5 µg/cm2: 0.5 μg/cm^2 on artificial diet; for mortality at 5 µg/cm2: 5 μg/cm^2 on artificial diet; for pest or weed control at 50 µg/cm2: Cabbage Looper, Table ABC, read-out: CL rating
In short: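 Second-instar larvae, one to five per well, placed on artificial diet surface-treated with 50 μg/cm^2 compound in acetone-water, eight wells per compound. Held 5-7 days at 25° C, 14:10 light-dark; percent mortality per well averaged across wells.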

SMILES | mortality at 0.05 µg/cm2 [1] | mortality at 0.5 µg/cm2 [1] | mortality at 5 µg/cm2 [1] | pest or weed control at 50 µg/cm2 [1] | mortality at 0.05 µg/cm2 [2] | mortality at 0.5 µg/cm2 [2] | mortality at 5 µg/cm2 [2] | pest or weed control at 50 µg/cm2 [2]
O=C(CNC(=O)c1ccc(/C(F)=C/C(c2cc(Cl)c(Cl)c(Cl)c2)C(F)(F)F)cc1C(F)(F)F)NCC(F)(F)F (stereo not drawn) [F1, (Z)—N-(2-oxo-2-((2,2,2-trifluoroethyl)amino)ethyl)-4-(1,4,4,4-tetrafluoro-3-(3,4,5-trichlorophenyl)but-1-en-1-yl)-2-(trifluoromethyl)benzamide] | 100% | 100% | 100% | 50 to 100% | 100% | 100% | 100% | 50 to 100%
CN(CC(F)(F)F)C(=O)CNC(=O)c1ccc(/C(F)=C/C(c2cc(Cl)c(Cl)c(Cl)c2)C(F)(F)F)cc1Cl (stereo not drawn) [F47, (Z)-2-Chloro-N-(2-(methyl(2,2,2-trifluoroethyl)amino)-2-oxoethyl)-4-(1,4,4,4-tetrafluoro-3-(3,4,5-trichlorophenyl)but-1-en-1-yl)benzamide] |  |  |  | 50 to 100% |  |  |  | 50 to 100%
Cc1cc(/C(F)=C/C(c2cc(Cl)c(Cl)c(Cl)c2)C(F)(F)F)ccc1C(=O)N[C@H](C)C(=O)NCC(F)(F)F (stereo partly drawn) [F7, 2-Methyl-N—((R)-1-oxo-1-((2,2,2-trifluoroethyl)amino)propan-2-yl)-4-((Z)-1,4,4,4-tetrafluoro-3-(3,4,5-trichlorophenyl)but-1-en-1-yl)benzamide] | 100% | 100% |  | 50 to 100% | 100% | 100% |  | 50 to 100%
C[C@@H](NC(=O)c1ccc(/C(F)=C/C(c2cc(Cl)c(Cl)c(Cl)c2)C(F)(F)F)cc1C(F)(F)F)C(=O)NCC(F)F (stereo partly drawn) [F30, N—((R)-1-((2,2-Difluoroethyl)amino)-1-oxopropan-2-yl)-4-((Z)-1,4,4,4-tetrafluoro-3-(3,4,5-trichlorophenyl)but-1-en-1-yl)-2-(trifluoromethyl)benzamide] |  |  |  | 50 to 100% |  |  |  | 50 to 100%
O=C(CNC(=O)c1ccc(/C(F)=C/C(c2cc(F)c(Cl)c(C(F)(F)F)c2)C(F)(F)F)cc1C(F)(F)F)NCC(F)(F)F (stereo not drawn) [F203, (Z)-4-(3-(4-Chloro-3-fluoro-5-(trifluoromethyl)phenyl)-1,4,4,4-tetrafluoro-but-1-en-1-yl)-N-(2-oxo-2-((2,2,2-trifluoroethyl)amino)ethyl)-2-(trifluoromethyl)benzamide] |  |  |  | 50 to 100% |  |  |  | 50 to 100%
CCC(F)(F)C(/C=C(\F)c1ccc(C(=O)NCC(=O)NCC(F)(F)F)c(C(F)(F)F)c1)c1cc(Cl)c(Cl)c(Cl)c1 (stereo not drawn) [F87, (Z)—N-(2-Oxo-2-((2,2,2-trifluoroethyl)amino)ethyl)-4-(1,4,4-trifluoro-3-(3,4,5-trichlorophenyl)hex-1-en-1-yl)-2-(trifluoromethyl)benzamide] |  |  |  | 50 to 100% |  |  |  | 50 to 100%
O=C(NC1(C(=O)NCC(F)(F)F)CC1)c1ccc(/C(F)=C/C(c2cc(Cl)c(Cl)c(Cl)c2)C(F)(F)F)cc1Cl (stereo not drawn) [F28, (Z)-2-Chloro-4-(1,4,4,4-tetrafluoro-3-(3,4,5-trichlorophenyl)but-1-en-1-yl)-N-(1-((2,2,2-trifluoroethyl)carbamoyl)cyclopropyl)benzamide] |  |  |  | 50 to 100% |  |  |  | 50 to 100%
Cc1cc(C(/C=C(\F)c2ccc(C(=O)N[C@H](C)C(=O)N(C)CC(F)(F)F)c(C(F)(F)F)c2)C(F)(F)F)ccc1Cl (stereo partly drawn) [PF49, 4-((Z)-3-(4-Chloro-3-methylphenyl)-1,4,4,4-tetrafluorobut-1-en-1-yl)-N—((R)-1-(methyl(2,2,2-trifluoroethyl)amino)-1-oxopropan-2-yl)-2-(trifluoromethyl)benzamide] |  |  |  | 50 to 100% |  |  |  | 50 to 100%
C[C@@H](NC(=O)c1ccc(/C(F)=C\C(c2cc(Cl)c(Cl)c(Cl)c2)C(F)(F)F)cc1C(F)(F)F)C(=O)NCC(F)(F)F (stereo partly drawn) [F17, N—((R)-1-oxo-1-((2,2,2-trifluoroethyl)amino)propan-2-yl)-4-((E)-1,4,4,4-tetrafluoro-3-(3,4,5-trichlorophenyl)but-1-en-1-yl)-2-(trifluoromethyl)benzamide] |  |  |  | 50 to 100% |  |  |  | 50 to 100%
CN(CC(F)(F)F)C(=O)C1(NC(=O)c2ccc(/C(F)=C/C(c3cc(Cl)c(Cl)c(Cl)c3)C(F)(F)F)cc2Cl)CC1 (stereo not drawn) [F97, (Z)-2-Chloro-N-(1-(methyl(2,2,2-trifluoroethyl)carbamoyl)cyclopropyl)-4-(1,4,4,4-tetrafluoro-3-(3,4,5-trichlorophenyl)but-1-en-1-yl)benzamide] |  |  |  | 50 to 100% |  |  |  | 50 to 100%
O=C(N[C@@H]1CON(CC(F)(F)F)C1=O)c1ccc(/C(F)=C/C(c2cc(Cl)c(Cl)c(Br)c2)C(F)(F)F)cc1C(F)(F)F (stereo partly drawn) [F197, 4-((Z)-3-(3-Bromo-4,5-dichlorophenyl)-1,4,4,4-tetrafluorobut-1-en-1-yl)-N—((R)-3-oxo-2-(2,2,2-trifluoroethyl)isoxazolidin-4-yl)-2-(trifluoromethyl)benzamide] |  |  |  | 50 to 100% |  |  |  | 50 to 100%
NC(=O)CNC(=O)c1ccc(/C(F)=C/C(c2cc(Cl)c(Cl)c(Cl)c2)C(F)(F)F)cc1C(F)(F)F (stereo not drawn) [F127, (Z)—N-(2-Amino-2-oxoethyl)-4-(1,4,4,4-tetrafluoro-3-(3,4,5-trichlorophenyl)but-1-en-1-yl)-2-(trifluoromethyl)benzamide] |  |  |  | 50 to 100% |  |  |  | 50 to 100%
Cc1cc(C(/C=C(\F)c2ccc(C(=O)NC3(C(=O)NCC(F)(F)F)CC3)c(C(F)(F)F)c2)C(F)(F)F)ccc1Cl (stereo not drawn) [PF50, (Z)-4-(3-(4-Chloro-3-methylphenyl)-1,4,4,4-tetrafluorobut-1-en-1-yl)-N-(1-((2,2,2-trifluoroethyl)carbamoyl)cyclopropyl)-2-(trifluoromethyl)benzamide] |  |  |  | 50 to 100% |  |  |  | 50 to 100%
C[C@@H](NC(=O)c1ccc(/C(F)=C/C(c2cc(Cl)cc(C#CC(C)(C)C)c2)C(F)(F)F)cc1C(F)(F)F)C(=O)NCC(F)(F)F (stereo partly drawn) [F212, 4-((Z)-3-(3-Chloro-5-(3,3-dimethylbut-1-yn-1-yl)phenyl)-1,4,4,4-tetrafluorobut-1-en-1-yl)-N—((R)-1-oxo-1-((2,2,2-trifluoroethyl)amino)propan-2-yl)-2-(trifluoromethyl)benzamide] |  |  |  | 50 to 100% |  |  |  | 50 to 100%
C[C@@H](NC(=O)c1ccc(/C(F)=C/C(c2cc(Cl)c(Cl)c(CF)c2)C(F)(F)F)cc1C(F)(F)F)C(=O)NCC(F)(F)F (stereo partly drawn) [F194] |  |  |  | 50 to 100% |  |  |  | 50 to 100%
C=CCNC(=O)C1(NC(=O)c2ccc(/C(F)=C/C(c3cc(Cl)c(Cl)c(Cl)c3)C(F)(F)F)cc2C(F)(F)F)CC1 (stereo not drawn) [F5, (Z)—N-(1-(Allylcarbamoyl)cyclopropyl)-4-(1,4,4,4-tetrafluoro-3-(3,4,5-trichlorophenyl)but-1-en-1-yl)-2-(trifluoromethyl)benzamide] |  |  |  | 50 to 100% |  |  |  | 50 to 100%
O=C(CNC(=O)c1ccc(/C(F)=C/C(c2cc(Cl)c(Cl)c(Cl)c2)C(F)(F)F)cc1Cl)NCC(F)(F)F (stereo not drawn) [F22, (Z)-2-Chloro-N-(2-oxo-2-((2,2,2-trifluoroethyl)amino)ethyl)-4-(1,4,4,4-tetrafluoro-3-(3,4,5-trichlorophenyl)but-1-en-1-yl)benzamide] | 100% | 100% | 100% | 50 to 100% | 100% | 100% | 100% | 50 to 100%
Cc1cc(/C(F)=C/C(c2cc(Cl)c(Cl)c(Cl)c2)C(F)(F)F)ccc1C(=O)NC1(C(=O)NCCC2CC2)CC1 (stereo not drawn) [F10, (Z)—N-(1-((2-Cyclopropylethyl)carbamoyl)cyclopropyl)-2-methyl-4-(1,4,4,4-tetrafluoro-3-(3,4,5-trichlorophenyl)but-1-en-1-yl)benzamide] |  |  |  | 50 to 100% |  |  |  | 50 to 100%
C=Cc1cc(/C(F)=C/C(c2cc(Cl)c(Cl)c(Cl)c2)C(F)(F)F)ccc1C(=O)N[C@H](C)C(=O)NCC(F)(F)F (stereo partly drawn) [F201, N—((R)-1-Oxo-1-((2,2,2-trifluoroethyl)amino)propan-2-yl)-4-((Z)-1,4,4,4-tetrafluoro-3-(3,4,5-trichlorophenyl)but-1-en-1-yl]-2-vinylbenzamide] |  |  |  | 50 to 100% |  |  |  | 50 to 100%
Cc1cc(/C(F)=C/C(c2cc(Cl)c(Cl)c(Cl)c2)C(F)(F)F)ccc1C(=O)NCC(=O)NCC(F)(F)F (stereo not drawn) [F6, (Z)-2-Methyl-N-(2-oxo-2-((2,2,2-trifluoroethyl)amino)ethyl)-4-(1,4,4,4-tetrafluoro-3-(3,4,5-trichlorophenyl)but-1-en-1-yl)benzamide] | 100% | 100% |  | 50 to 100% | 100% | 100% |  | 50 to 100%
